Where two headings read alike, the source gives them in different places.
Experiments:
Assay type in all cases: cell-based
[1] = system: prostate cancer (5 cell lines); assay: CellTiter-Glo Viability Assay, prostate cancer; details: Homo sapiens
Method: (§1) Fifty-one human cancer cell lines (breast cancer (8 cell lines), colorectal cancer (6 cell lines), haematopoietic & lymphoid tumors (13 cell lines), liver cancer (3 cell lines), lung cancer (4 cell lines), ovarian cancer (4 cell lines), pancreatic cancer (8 cell lines), and prostate cancer (5 cell lines)) were tested to determine the effects of representative compounds of Formulas (I)-(XII) on cellular proliferation, as evaluated using the CellTiter-Glo® Viability Assay.
(§2) For the Cell Viability Assays, cells were plated at 300-3,000 cells/well in 384-well plates in their respective media containing 1% Penicillin-Streptomycin and incubated for four days at 37° C. and 5% CO2. Twenty-eight replicates of DMSO-treated cells served as controls and cells treated with compound were performed in duplicate.
(§3) After incubation, 10 μL of CellTiter-Glo® (Promega) was added to each well allowed to incubate for approximately 12 minutes. This reagent results in cell lysis and generation of a luminescent signal proportional to the amount of ATP present. The amount of ATP is directly proportional to the number of metabolically active, viable cells present in culture. The CellTiter-Glo® Assay generates a luminescent signal, produced by the luciferase reaction (Promega.com).
(§4) After incubation, the luminescence signal was read using an EnVision™ Multilabel Plate Reader (Perkin Elmer). Dose-response curves were generated and EC50 concentration values were calculated using Dotmatics' Studies Software (Bishops Stortford, UK).

[2] = system: liver cancer (3 cell lines); assay: CellTiter-Glo Viability Assay, liver cancer; details: Homo sapiens
Method: as §1, §2, §3, §4

[3] = system: colorectal cancer (6 cell lines); assay: CellTiter-Glo Viability Assay, colorectal cancer; details: Homo sapiens
Method: as §1, §2, §3, §4

[4] = system: pancreatic cancer (8 cell lines); assay: CellTiter-Glo Viability Assay, pancreatic cancer; details: Homo sapiens
Method: as §1, §2, §3, §4

[5] = system: lung cancer (4 cell lines); assay: CellTiter-Glo Viability Assay, lung cancer; details: Homo sapiens
Method: as §1, §2, §3, §4

CAMA1 = assay: CellTiter-Glo Viability Assay, breast cancer; details: Homo sapiens, CAMA-1, 96 h
Method: as §1, §2, §3, §4

MCF7 = assay: CellTiter-Glo Viability Assay, breast cancer; details: Homo sapiens, MCF7, 96 h
Method: as §1, §2, §3, §4

DU4475 = assay: CellTiter-Glo Viability Assay, breast cancer; details: Homo sapiens, DU-4475, 96 h
Method: as §1, §2, §3, §4

ZR-75-1 = assay: CellTiter-Glo Viability Assay, breast cancer; details: Homo sapiens, ZR-75-1, 96 h
Method: as §1, §2, §3, §4

MDA-MB-231-Luc = assay: CellTiter-Glo Viability Assay, breast cancer; details: Homo sapiens, 96 h
Method: as §1, §2, §3, §4

BT-549 = assay: CellTiter-Glo Viability Assay, breast cancer; details: Homo sapiens, BT-549, 96 h
Method: as §1, §2, §3, §4

HCC1599 = assay: CellTiter-Glo Viability Assay, breast cancer; details: Homo sapiens, HCC1599, 96 h
Method: as §1, §2, §3, §4

T47D = assay: CellTiter-Glo Viability Assay, breast cancer; details: Homo sapiens, 96 h
Method: as §1, §2, §3, §4

[6] = system: haematopoietic & lymphoid tumors (13 cell lines); assay: CellTiter-Glo Viability Assay, haematopoietic & lymphoid tumors; details: Homo sapiens
Method: as §1, §2, §3, §4

[7] = system: ovarian cancer (4 cell lines); assay: CellTiter-Glo Viability Assay, ovarian cancer; details: Homo sapiens
Method: as §1, §2, §3, §4

Work on CN1CCN(c2cc(C(=O)Nc3cc4cc(-c5cnn(C)c5)ccc4cn3)ccn2)CC1 [Compound 12] yielded an EC50 ([1]; 22Rv1, read-out: Prostate cancer EC50 22Rv1) of 191 nM, an EC50 ([1]; DU-145, read-out: Prostate cancer EC50 Du-145) of 377 nM and an EC50 ([1]; LNCaP-Clone-FGC, read-out: Prostate cancer EC50 LNCap clone FGC) of 329 nM. The EC50 ([1]; PC-3, read-out: Prostate cancer EC50 PC3) was 237 nM, the EC50 ([1]; VCaP, read-out: Prostate cancer EC50 VCaP (Sigma)) was 462 nM and the EC50 ([2]; HepG2, read-out: Liver cancer, EC50 HEPG2) was 309 nM. For the same compound, the EC50 ([2]; PLC-PRF-5, read-out: Liver cancer, EC50 PLC/PRF/5) was 465 nM, the EC50 ([2]; SNU-398, read-out: Liver cancer, EC50 SNU398) was 62 nM and the EC50 ([3]; DLD-1, read-out: Colorectal cancer, EC50 (μM) DLD-1) was 0.183 µM. For the same compound, the EC50 ([3]; HCT-116, read-out: Colorectal cancer, EC50 (μM) HCT116) was 0.138 µM, the EC50 ([3]; HT-29, read-out: Colorectal cancer, EC50 (μM) HT29) was 0.291 µM and the EC50 ([3]; SW48, read-out: Colorectal cancer, EC50 (μM) SW48) was 0.09 µM. For the same compound, the EC50 ([3]; SW480, read-out: Colorectal cancer, EC50 (μM) SW480) was 0.159 µM, the EC50 ([3]; SW-620, read-out: Colorectal cancer, EC50 (μM) SW620) was 0.114 µM and the EC50 ([4]; BXPC-3, read-out: Pancreatic cancer, EC50 BxPC3) was 420 nM. It also gave an EC50 ([4]; CAPAN-1, read-out: Pancreatic cancer, EC50 Capan1) of 343 nM, an EC50 ([4]; Capan-2, read-out: Pancreatic cancer, EC50 Capan2) of 415 nM and an EC50 ([4]; MIA PaCa-2, read-out: Pancreatic cancer, EC50 MIA PaCa-2) of 131 nM. For the same compound, the EC50 ([4]; PANC-1, read-out: Pancreatic cancer, EC50 PANC-1) was 294 nM, the EC50 ([4]; Panc 05.04, read-out: Pancreatic cancer, EC50 PANC 05.04) was 340 nM and the EC50 ([4]; read-out: Pancreatic cancer, EC50 UPAFII) was 153 nM. For the same compound, the EC50 ([5]; A-427, read-out: Lung cancer, EC50 (μM) A427) was 0.277 µM, the EC50 ([5]; HCC78, read-out: Lung cancer, EC50 (μM) HCC-78) was 0.326 µM and the EC50 ([5]; NCI-H460, read-out: Lung cancer, EC50 (μM) NCI-H460) was 0.261 µM. It also gave an EC50 ([5]; NCI-H522, read-out: Lung cancer, EC50 (μM) NCI-H522) of 0.133 µM, an EC50 (CAMA1) of 347 nM and an EC50 (MCF7) of 600 nM. The EC50 (DU4475) was 182 nM, the EC50 (ZR-75-1) was 361 nM and the EC50 (MDA-MB-231-Luc) was 304 nM. The EC50 (BT-549) was 231 nM, the EC50 (HCC1599) was 103 nM and the EC50 (T47D) was 427 nM. For the same compound, the EC50 ([6]; DND41, read-out: Haematopoietic & Lymphoid tumors, EC50 (μM) DND-41) was 0.208 µM, the EC50 ([6]; HL-60, read-out: Haematopoietic & Lymphoid tumors, EC50 (μM) HL-60) was 0.518 µM and the EC50 ([6]; JM1, read-out: Haematopoietic & Lymphoid tumors, EC50 (μM) JM1) was 0.095 µM. It also gave an EC50 ([6]; JeKo-1, read-out: Haematopoietic & Lymphoid tumors, EC50 (μM) JeKo-1) of 0.081 µM, an EC50 ([6]; Jurkat, read-out: Haematopoietic & Lymphoid tumors, EC50 (μM) JURKAT, Clone E6-1) of 0.412 µM and an EC50 ([6]; Kasumi 1, read-out: Haematopoietic & Lymphoid tumors, EC50 (μM) KASUMI-1) of 0.156 µM. It also gave an EC50 ([6]; MOLT-4, read-out: Haematopoietic & Lymphoid tumors, EC50 (μM) MOLT-4) of 0.302 µM, an EC50 ([6]; MV4-11, read-out: Haematopoietic & Lymphoid tumors, EC50 (μM) MV-4-11) of 0.082 µM and an EC50 ([6]; Rec1, read-out: Haematopoietic & Lymphoid tumors, EC50 (μM) REC-1) of 0.075 µM. For the same compound, the EC50 ([6]; SU-DHL-4, read-out: Haematopoietic & Lymphoid tumors, EC50 (μM) SUDHL4) was 0.335 µM, the EC50 ([6]; TF-1, read-out: Haematopoietic & Lymphoid tumors, EC50 (μM) TF-1) was 0.386 µM and the EC50 ([6]; Toledo, read-out: Haematopoietic & Lymphoid tumors, EC50 (μM) TOLEDO) was 0.101 µM. For the same compound, the EC50 ([6]; read-out: Haematopoietic & Lymphoid tumors, EC50 (μM) Loucy) was 0.155 µM, the EC50 ([7]; OV-90, read-out: Ovarian cancer, EC50 (μM) OV-90) was 0.456 µM and the EC50 ([7]; OVCAR-3, read-out: Ovarian cancer, EC50 (μM) OVCAR-3) was 0.113 µM. For the same compound, the EC50 ([7]; PA-1, read-out: Ovarian cancer, EC50 (μM) PA1) was 0.172 µM and the EC50 ([7]; TOV112D, read-out: Ovarian cancer, EC50 (μM) TOV-112D) was 0.152 µM.
